# From patent US7354991B2, “Peptides for the diagnosis of schizophrenia” (Yeda Research and Development Co. Ltd, priority 2001, dated 2008)
# Experiments:
# [1] = test system: plasma samples from non schizophrenic individuals; assay: Enzyme immunoassay: binding of biotin-labeled peptide on streptavidine coated tubes to control plasma; set-up: species or system human; details: 50 control individuals; FIG. 3
# Protocol: (§1) • 1. Patients and control persons—Thirty-nine schizophrenic patients participated in this study. The following parameters were recorded: gender, age, duration of schizophrenia, number of hospitalizations, years of education and the psychiatric status (PANSS). Fifty plasma samples were obtained from a local blood bank. • 2. Plasma—Venous blood was drawn with heparin as […] from patients and control subjects. Plasma was obtained after centrifugation (4000 g; 15 mins. 4° C.). • 3. Peptide synthesis and biotin labeling—The peptides were synthesized on an Abimed 522 at a 10 micromol scale by Eurosequence b.v., (Nijenborgh 4: 9747 AG Groningen; The Netherlands) and labeled at the amino terminal with biotin containing a six carbon spacer. Peptide purity was routinely assessed by RP-HPLC and, when considered necessary, by laser desorption mass spectroscopy. The peptides were routinely dissolved in 1 ml water/DMF/DMSO (1:1:1; v/v/v). • 4. […] The absorbence was read at 450 nm spectrophotometrically. […]
# (§2) Therefore, an experiment was carried out with the biotin-LVVGLCK as follows: the peptide was biotin-labeled and coated onto streptavidine coated tubes as explained above. Plasma samples of 39 schizophrenic patients and 50 control non schizophrenic individuals were tested with the coated peptide and the level of binding was determined by the enzyme immunoassay described above.
# [2] = test system: autoantibodies in plasma samples from schizophrenic patients; assay: Enzyme immunoassay: binding of biotin-labeled peptide on streptavidine coated tubes to plasma of schizophrenic patients; set-up: species or system human; details: 39 schizophrenic patients; FIG. 3
# Protocol: as §1, §2
substance,measurement,setting,value
LVVGLCK,"level of binding, mean value and standard deviation, plasma of non schizophrenic individuals",[1],0.46±0.21 O.D.
same,"level of binding, mean value and standard deviation, plasma of schizophrenic patients",[2],1.47±0.65 O.D.
